The values that follow are results of earlier work, collected in patent US9498424B2, “Active mixtures of acylated oligopeptides and troxerutin” (Symrise AG, priority 2013, dated 2016).

In this data set the test system is mice.

With `C[C@@H]1O[C@@H](OC[C@H]2O[C@@H](Oc3c(-c4ccc(OCCO)c(OCCO)c4)oc4cc(OCCO)cc(O)c4c3=O)[C@H](O)[C@@H](O)[C@@H]2O)[C@H](O)[C@H](O)[C@H]1O` [Troxerutin], the CNS insulin resistance result is recorded as “reverse CNS insulin resistance” and the “reactive oxygen species induced by a high-cholesterol diet” value was “reduce reactive oxygen species”.
